Patent US11421044B2, “Nitric oxide-releasing antibacterial polymers and scaffolds fabricated therefrom and methods pertaining thereto” (THE UNIVERSITY OF NORTH CAROLINA AT CHAPEL HILL, priority 2018, dated 2022)

Experiments:
Assay in all cases: Planktonic bactericidal assay, 4 h
Conditions in all cases: 4 h exposure
P. aeruginosa = assay type: cell-based, Pseudomonas aeruginosa (ATCC #47085)
Experimental: (§1) Planktonic bactericidal assay. Bacterial cultures of P. aeruginosa, E. coli, E. faecalis, S. aureus, multidrug-resistant (MDR) P. aeruginosa, and methicillin-resistant S. aureus were grown from frozen (−80° C.) stocks overnight in TSB (3 mL) at 37° C. An aliquot (1 mL) of the overnight solution was recultured in fresh TSB (50 mL) to a concentration of 10^8 CFU mL^−1 and subsequently diluted to 10^6 CFU mL^−1 in PBS (10 mM, pH 7.4). Weighed samples of control (non-NO-releasing) HA, NO-releasing HA, or neomycin sulfate were dissolved in PBS and titrated with 1 M HCl to adjust the pH to 7.4.
(§2) Samples were added to a 96-well polystyrene plate and serially diluted in PBS so that each well contained 100 μL of control HA, NO-releasing HA, or neomycin. Bacterial solution containing 10^6 CFU mL^−1 (100 μL; 1 vol % TSB supplemented PBS) was added to each well, giving final HA concentrations in the range of 0.25 to 32 mg mL^−1 or neomycin concentrations from 0.5 to 1024 μg mL^−1. The 96-well plate was then incubated at 37° C. for 4 h with gentle shaking. […] Viability of bacteria following treatment with HA or neomycin was determined using a Flash & Go colony counter (IUL; Farmingdale, N.Y.). […] The NO dose required for bactericidal action was calculated by multiplying the MBC4 h of the NO-releasing HA samples (mg mL^−1) with the total NO released in PBS (pH 7.4; μmol NO mg^−1 HA) at 4 h. […]

E. coli = assay type: cell-based, Escherichia coli (ATCC #43888)
Experimental: as §1, §2

MDR-P. aeruginosa = assay type: cell-based, multidrug-resistant P. aeruginosa (ATCC #BAA-2110)
Experimental: as §1, §2

MRSA = assay type: cell-based, methicillin-resistant S. aureus (ATCC #33591)
Experimental: as §1, §2

E. faecalis = assay type: cell-based, Enterococcus faecalis (ATCC #29212)
Experimental: as §1, §2

S. aureus = assay type: cell-based, Staphylococcus aureus (ATCC #29213)
Experimental: as §1, §2

neomycin sulfate
Dose of neomycin for 3-log reduction (P. aeruginosa): 32 μg mL^−1
Dose of neomycin for 3-log reduction (E. coli): 1 μg mL^−1
Dose of neomycin for 3-log reduction (MDR-P. aeruginosa): 128 μg mL^−1
Dose of neomycin for 3-log reduction (MRSA): >1024 μg mL^−1
Dose of neomycin for 3-log reduction (E. faecalis): 64 μg mL^−1
Dose of neomycin for 3-log reduction (S. aureus): 2 μg mL^−1
